Experimental data: patent US7910573B2, “Crystalline forms of 11β-(4-acetylphenyl)-20,20,21,21,21-pentafluoro-17-hydroxy-19-nor-17α-pregna-4,9-dien-3-one” (Bayer Schering Pharma AG, priority 2006, dated 2011)

Key:
Type in all cases: physicochemical
[1] = Solubility in a water/ethanol mixture; conditions: proportion of water 20 wt %
Text: This dependency is depicted in FIG. 7. […] The required proportion of water is distinctly higher for other systems, so that the displacement can be carried out only at high dilution and thus with an inadequate space yield.

[2] = Short-term stability on storage at elevated temperature and elevated humidity; conditions: 70° C.
Text: This is shown on comparison of the results of the temperature tests, moisture tests and in particular in light exposure tests.
(§1) On use of 11β-(4-acetylphenyl)-20,20,21,21,21-pentafluoro-17-hydroxy-19-nor-17α-pregna-4,9-dien-3-one as active ingredient in pharmaceutical preparations, the profile of impurities is of crucial importance. A compound which occurs on storage of this active ingredient is 11β-(4-acetylphenyl)-20,20,21,21,21-pentafluoro-17-hydroxy-9,10-epoxy-19-nor-10α,17α-pregna-1,4-dien-3-one. The toxicity of this compound is known. The content of this impurity must be below 0.2% until the shelf life of the pharmaceutical formulation expires. […] The amorphous solid is therefore unsuitable without stabilization for use in a medicinal product. With polymorph I, however, the increase in this critical impurity is virtually zero. Elaborate stabilization on use of polymorph I is therefore no longer necessary. The formation of the abovementioned epoxy impurity on storage of amorphous 11β-(4-acetylphenyl)-20,20,21,21,21-pentafluoro-17-hydroxy-19-nor-17α-pregna-4,9-dien-3-one at a temperature of 70° C. is 0.6% after only 15 days and as much as 1.1% after 30 days. On the other hand, on storage of polymorph I at the same temperature for 30 days, just 0.1% of the epoxy impurity is detectable.

[3] = Solid form conversion of the amorphous active ingredient under stress conditions; conditions: 15 d, 90° C./75% relative humidity
Text: It can be assumed that such a recrystallization also occurs on storage of the amorphous phase over a lengthy period at relatively low temperatures. Such a conversion is, however, undesired in the finished medicinal form because it may lead to an altered, non-reproducible release of the active ingredient, but may also influence the hardness of the medicinal form.

[4] = Stability on storage under light (20 kLux); conditions: for decrease in the active ingredient content: initial values 98.4% and 95.4%
Text: The greater stability of polymorph I is even clearer on storage under light. […] The initial values were 98.4% and 95.4% here too.
as §1

[5] = Short-term stability on storage at elevated temperature and elevated humidity
[6] = 50° C., 75% rel. humidity, 15 days
[7] = 50° C., 75% rel. humidity, 30 days
[8] = 50° C., no rel. humidity given, 15 days, initial content 98.4% or 95.4%
[9] = 50° C., no rel. humidity given, 30 days, initial content 98.4% or 95.4%
[10] = 70° C., 75% rel. humidity, 15 days
[11] = 70° C., 75% rel. humidity, 30 days
[12] = 70° C., no rel. humidity given, 15 days
[13] = 70° C., no rel. humidity given, 30 days
[14] = 90° C., 75% rel. humidity, 15 days
[15] = 90° C., no rel. humidity given, 15 days

Structure (SMILES): CC(=O)c1ccc([C@H]2C[C@@]3(C)[C@@H](CC[C@@]3(O)C(F)(F)C(F)(F)F)[C@@H]3CCC4=CC(=O)CCC4=C32)cc1 [11β-(4-Acetylphenyl)-20,20,21,21,21-pentafluoro-17-hydroxy-19-nor-17α-pregna-4,9-dien-3-one]
- solubility relative to the solubility in pure ethanol [1]: one-hundredth

Structure (SMILES): CC(=O)c1ccc([C@H]2C[C@@]3(C)[C@@H](CC[C@@]3(O)C(F)(F)C(F)(F)F)[C@@H]3CCC4=CC(=O)CCC4=C32)cc1 [amorphous, 11β-(4-acetylphenyl)-20,20,21,21,21-pentafluoro-17-hydroxy-19-nor-17α-pregna-4,9-dien-3-one]
- formation of the epoxy impurity on storage ([2]; 15 days): 0.6%
- formation of the epoxy impurity on storage ([2]; 30 days): 1.1%
- change of solid form on storage [3]: Partial recrystallization to give polymorph I
- increase in the epoxy impurity ([4]; 20 kLux, 42 h): 8.4%
- increase in the epoxy impurity ([4]; 20 kLux, 66 h): 11.2%
- decrease in the active ingredient content ([4]; storage under 20 kLux for 42 h): −34%
- decrease in the active ingredient content ([4]; storage under 20 kLux for 66 h): −42%
- decrease in the active ingredient content [5, 6]: −2.8%
- decrease in the active ingredient content [5, 7]: −3.3%
- decrease in the active ingredient content [5, 8]: −2.9%
- decrease in the active ingredient content [5, 9]: −5.1%
- decrease in the active ingredient content [5, 10]: −13.5%
- decrease in the active ingredient content [5, 11]: −17.4%
- decrease in the active ingredient content [5, 12]: −10.2%
- decrease in the active ingredient content [5, 13]: −17.3%
- decrease in the active ingredient content [5, 14]: −31.7%
- decrease in the active ingredient content [5, 15]: −32.6%

Structure (SMILES): CC(=O)c1ccc([C@H]2C[C@@]3(C)[C@@H](CC[C@@]3(O)C(F)(F)C(F)(F)F)[C@@H]3CCC4=CC(=O)CCC4=C32)cc1 [polymorph I, 11β-(4-acetylphenyl)-20,20,21,21,21-pentafluoro-17-hydroxy-19-nor-17α-pregna-4,9-dien-3-one]
- formation of the epoxy impurity on storage ([2]; 30 days): 0.1%
- increase in the epoxy impurity ([4]; 20 kLux, 42 h): 0.1%
- increase in the epoxy impurity ([4]; 20 kLux, 66 h): 0.1%
- decrease in the active ingredient content ([4]; storage under 20 kLux for 42 h): −0.2%
- decrease in the active ingredient content ([4]; storage under 20 kLux for 66 h): −0.4%
- increase in the epoxy impurity ([4]; storage under stress conditions and under light): below 0.2%
- decrease in the active ingredient content [5, 6]: 0%
- decrease in the active ingredient content [5, 7]: −0.1%
- decrease in the active ingredient content [5, 8]: 0%
- decrease in the active ingredient content [5, 9]: −0.3%
- decrease in the active ingredient content [5, 10]: −0.1%
- decrease in the active ingredient content [5, 11]: −0.2%
- decrease in the active ingredient content [5, 12]: −1.5%
- decrease in the active ingredient content [5, 13]: −3.5%
- decrease in the active ingredient content [5, 14]: −0.2%
- decrease in the active ingredient content [5, 15]: −3.6%
